The values that follow come from patent publication US20100190683A1, “SOLIDIFIED DETERGENT COMPOSITIONS AND METHOD FOR PRODUCING THE SAME” (priority 2007, published 2010).

SMILES strings stand for the structures.

The nature of data set [1]: Solubility to tap water and behavior after dissolution of lyophilized samples. It is filed as physicochemical. Conditions: lyophilization 15 hours. As for the experimental part:
On the other hand, such a phenomenon was not seen when ethanol was added (Table 1). Therefore, in the conditions like the ethanol addition groups, the sample was prepared by using t-butyl alcohol in substitution for ethanol, and lyophilized for 15 hours. As a result, solidification (powderization) by lyophilization was possible in both samples. In addition, the solubility to tap water was good, and after dissolution, gelation or the like has not also happened (Table 2). Furthermore, ethanol or t-butyl alcohol was not added, and in the system which only HD was added, the solubility to tap water was good, and after dissolution, gelation or the like had not also happened (Table 2). In the system which as substitution for HD, a nonionic surfactant, polyoxyethylene sorbitan monolaurate (hereinafter referred to as PO) was added, this system was also examined, and then a similar good result was obtained.

A short description of data set [2]: Solubility to tap water of the substance obtained by azeotrope at 70° C. Conditions: surfactant HD, tap water of 5 mL. The class given is physicochemical. As for the experimental part: In the undiluted solution of octadecyl dimethyl (3-trimethoxysilyl propyl) ammonium chloride (hereinafter referred to as QAS) which is an antimicrobial detergent, hexadecyl trimethyl ammonium (hereinafter referred to as HD), which was a cationic surfactant, was added, and for the azeotrope, a sample solution with the addition of acetone or ethanol was prepared, azeotrope was performed at 70° C. […] In the resultant gelated substance, tap water of 5 mL was added, but gelation advanced in many samples highly and solidification was occurred within several minutes to 1 hour, and those were not suitable for practical use (Table 1).

[3] abbreviates: surfactant HD, solvent t-Butyl alcohol.
The mark [4] stands for this setting: surfactant HD, solvent: nothing.
[5] abbreviates: surfactant PO, solvent: nothing.

For `CCCCCCCCCCCCCCCCCC[N+](C)(C)CCC[Si](OC)(OC)OC.[Cl-]` [QAS, octadecyl dimethyl (3-trimethoxysilyl propyl) ammonium chloride], the Behavior after dissolution result was “No problem” in data set [1] (surfactant HD, solvent Ethanol); “No problem” in data set [1] (setting [3]); “No problem” in data set [1] (setting [4]); “No problem” in data set [1] (setting [5]). Further, the “Solubility to tap water” value in data set [1] (surfactant HD, solvent Ethanol) is listed as “No problem”; in data set [1] (setting [3]), “No problem”; in data set [1] (setting [4]) it was “No problem”; in data set [1] (setting [5]), “No problem”; in data set [2] (solvent addition Acetone), “Gel→Consolidate”; in data set [2] (solvent addition: nothing), “Gel→Consolidate”.
